Common to all, as to assay: growth of human tumour cells (NCI), 48 h
For assay [1], the system named is 786-0 renal.
The subject of assay [2] is HT29 colon.
Assay [3] concerns MOLT-4 leukemia.
The subject of assay [4] is NCI-H460 lung.
Assay [5] relates to OVCAR-3 ovarian.
Assay [6] deals with RXF 393 renal.
Assay [7] concerns U251 CNS.
The test system of assay [8] is A498 renal.
Assay [9] relates to SK-OV-3 ovarian.
Assay [10] deals with PC-3 prostate.

Where “and” joins values, the source holds several entries; their conditions need not be identical. Equal values may be shown once.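 All cell lines were grown in 96-well plates and treated with compound for 48 hours. GI50: concentration for 50% inhibition of growth. The concentration for full growth arrest is given as TGI.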

For the compound `COC(=O)C1=C(C(=O)OC)C23C=CC=CC24C(C(=O)OC)=C(C(=O)OC)C4C1C3` (stereo unspecified), the TGI in assay [1], in [2], in [3], in assay [4], in assay [5] and in assay [6] was over 100 µM throughout. Further, the TGI in [7] is over 100 µM.
On to `Cc1c(O)c(=O)ccn1C1OC(CO)C(O)C1O` (stereo unspecified), for which the TGI in assay [1], in assay [8], in assay [2], in [3], in assay [4] and in [5] was over 100 µM throughout. The TGI in assay [6], in [9] and in assay [7] was over 100 µM in each case.
`NC(=O)c1csc(C2C=CC(CO)O2)n1` (stereo unspecified): the TGI in assay [1] is over 100 µM; in [8], over 100 µM; in [2] it was over 100 µM; in [3], over 100 µM; in [4] it was over 100 µM; in [5], over 10 µM. The TGI in [9] and in [7] was over 100 µM each time.
With `CC1=C(C(=O)Nc2ccccc2C)C(c2ccc([N+](=O)[O-])cc2)C(C(=O)Nc2ccccc2C)=C(C)N1`, the TGI in [1] is over 100 µM; in assay [8] it was 80.5 µM; in [2] it was over 100 µM; in [3], over 100 µM; in assay [4] it was over 100 µM; in [5] it was over 100 µM. The results for the TGI in assay [6], in [9] and in [7] were 88.2 µM, over 100 µM and over 100 µM, respectively.
For `Cc1ccc(S(=O)(=O)CNC(=S)CCCC(=S)NCS(=O)(=O)c2ccc(C)cc2)cc1`, the TGI in assay [1], in assay [8], in assay [2], in assay [3], in assay [4] and in [5] was over 100 µM in each case. Further, the TGI in assay [6], in assay [9] and in assay [7] was over 100 µM throughout.
`Cc1ccc(S(=O)(=O)N2CCC3(C(/C=C/c4ccccc4)=Nc4ccccc43)C2c2ccccc2)cc1` (stereo unspecified): the TGI in [1], in [8], in assay [2], in assay [4], in assay [5] and in assay [6] was over 100 µM each time. For the same compound, the TGI in [9] and in assay [7] was over 100 µM in each case.
In the case of `N/N=C1\c2ccccc2C2/C(=N\N)c3ccccc3C12` (stereo unspecified), the TGI in assay [1], in [2], in assay [3], in [4], in assay [5] and in [6] was over 100 µM in each case. Also, the TGI in assay [9] and in [7] was over 100 µM each time.
Take `C=CCNC1=C(C(=O)OCC)C(=O)CO1`: the TGI in [1], in assay [8], in assay [2], in assay [3], in assay [4] and in assay [5] was over 100 µM in each case. Besides, the TGI in assay [6] and in assay [7] was over 100 µM in each case.
With `CC1CCCC(C(O)CC2CC(=O)N(c3ccccc3)C(=O)C2)C1=O` (stereo unspecified), the TGI in assay [1], in assay [8], in assay [2], in assay [3], in assay [4] and in assay [5] was over 100 µM each time. Moreover, the TGI in [6], in assay [9] and in assay [7] was over 100 µM each time.
For the compound `CC(=O)NNc1nc(C)c(C(/C=C/c2ccc(Cl)cc2)=N\NS(=O)(=O)c2ccc(C)cc2)s1`, the TGI in [1], in assay [8], in assay [2], in assay [3], in assay [4] and in assay [5] was over 100 µM throughout. The TGI in assay [6], in [9] and in assay [7] was over 100 µM in each case.
With `Cc1ccc(NC(=O)CC(=O)n2nc(-c3ccccc3)c(N=Nc3ccc(Cl)cc3)c2-c2ccccc2)cc1`, the TGI in [1] was 45.2 µM; in assay [8] it was over 100 µM; in [2], 40.4 µM; in [3], over 100 µM; in assay [4], over 100 µM; in [5], over 100 µM. This compound also yielded a TGI in [9] of over 100 µM.
With `CC(=O)OCC1OC(OC2CC3C(C)(C)C(OC(C)=O)CC[C@]3(C)C3CCC45CC4(CC[C@H]5C(C)CC(O)C4OC4(C)C)[C@]23C)C(O)C(O)C1O` (stereo partly specified), the GI50 in assay [1] was 3.58 µM; in assay [2], 1.86 µM; in assay [3], 2.52 µM; in [4], 3.21 µM; in [9], 3.22 µM; in [7], 3.13 µM. Moreover, the TGI in assay [1] is 10.6 µM and 14.1 µM; in [8] it was 10.2 µM; in assay [2], 1.73 µM and 3.38 µM; in [3], 1.09 µM and 7.69 µM; in assay [4], 5.75 µM and 9.38 µM; in assay [5] it was 8.76 µM and 7.08 µM. For the same compound, the TGI was 4 µM in [6]; 8.7 µM and 11.2 µM in assay [9]; 7.73 µM and 11.8 µM in assay [7].
For `CCCCCCCCCCCCCC/C(C(=O)OC)=C(/O)C(=O)OCC`, the TGI in assay [1] was 38.2 µM; in [8] it was over 100 µM; in [2] it was over 100 µM; in [3], over 100 µM; in assay [4] it was over 100 µM; in assay [5], over 100 µM. In addition, the TGI was over 100 µM in assay [6], over 100 µM in [9] and 69.4 µM in assay [7].
With `C/C(=N\NC(=O)CC(=O)Nc1ccc(Cl)cc1)c1cc2ccccc2oc1=O`, the TGI in [1], in assay [2], in assay [3], in assay [4], in assay [5] and in assay [6] was over 100 µM throughout. Besides, the TGI in assay [9] and in [7] was over 100 µM throughout.
With `CCc1cccc(C(C)C)c1NC(=O)C(=O)C(C(=O)C(=O)OC)c1nc2ccccc2[nH]c1=O` (stereo unspecified), the TGI in assay [1], in assay [8], in assay [2], in assay [3], in assay [4] and in assay [6] was over 100 µM throughout. In addition, the TGI in assay [9] and in [7] was over 100 µM each time.
Consider `O=C(CC/C(C/C(=N/O)c1ccc(F)cc1)=N/O)N(Cc1ccccc1)Cc1ccccc1`, for which the TGI in assay [1], in [8], in assay [2], in [3], in [4] and in assay [5] was over 100 µM each time. Moreover, the TGI in assay [6] and in assay [7] was over 100 µM each time.
For `C=C(CN(CC(=C)C(=O)c1ccccc1)C(C)(C)C)C(=O)c1ccccc1`, the TGI in assay [1] was 24.5 µM; in assay [8], 32.9 µM; in assay [2], 41.9 µM; in assay [3], 10.2 µM; in assay [4], 43.2 µM; in assay [5] it was 37.5 µM. Besides, the values for the TGI in assay [6], in assay [9] and in [7] were 18.7 µM, 34.4 µM and 39.4 µM, respectively.
Turning to `FC(F)(F)c1ccc(C=NC23CC4CC(CC(C4)C2)C3)cc1`, the TGI in [1], in assay [8], in assay [2], in assay [3], in assay [4] and in [5] was over 100 µM in each case. Further, the TGI in [6], in [9] and in assay [7] was over 100 µM each time.
`CC12O[C@H](c3ccccc3)[C@H](c3ccccc3)N1C(=O)C1(C(=O)OCc3ccccc3)CC12` (stereo partly specified): the TGI is over 100 µM in assay [1]; over 100 µM in assay [8]; over 100 µM in assay [2]; 63.2 µM in assay [3]; over 100 µM in [4]; over 100 µM in assay [5]. Also, in assay [9], the TGI was over 100 µM.
In the case of `Cc1ccc(S(=O)(=O)Oc2ccc3c4c(c(=O)oc3c2)CCCCC4)cc1`, the GI50 in assay [1] was over 100 µM; in [8] it was 6.21 µM; in assay [2], 4.06 µM; in assay [3], 6.16 µM; in assay [10], 4.26 µM; in assay [9], over 100 µM. Moreover, the GI50 in assay [7] is over 100 µM. In addition, the TGI in assay [1], in assay [8], in assay [2], in assay [3], in [10] and in assay [9] was over 100 µM each time. For the same compound, in assay [7], the TGI is over 100 µM.
In the case of `CC[C@@]1(O)C(=O)OCc2c1cc1n(c2=O)Cc2cc3cc(OC)ccc3nc2-1`, the GI50 in assay [1] was 0.0159 µM; in assay [8] it was 0.0272 µM; in assay [2], 0.0864 µM; in [3] it was 0.0038 µM; in assay [4], 0.00433 µM; in assay [5], 0.367 µM and 0.747 µM. Further, in [6], the GI50 was 0.101 µM. Besides, the TGI in assay [8] is 1.8 µM and 0.307 µM; in assay [2], 0.238 µM; in [3], 0.0289 µM; in assay [4] it was 0.152 µM and 0.211 µM and 0.188 µM; in assay [5], 5.73 µM and 4.54 µM; in [6], 0.0828 µM and 0.561 µM. The compound further registered a TGI in assay [7] of 0.0541 µM.
Take `Cn1cc2c(n1)c(N/N=C/c1ccccc1)nn1nnnc21`: the TGI in assay [1], in assay [8], in [2], in [3], in [4] and in assay [5] was over 100 µM throughout. In addition, the TGI in [6], in assay [9] and in assay [7] was over 100 µM throughout.
In the case of `CN(C)c1ccc(/C=C2\CNC/C(=C\c3ccc(N(C)C)cc3)C2=O)cc1`, the TGI is 31.6 µM in [1]; 39.5 µM in assay [8]; 24.1 µM in assay [2]; over 100 µM in [3]; 29.4 µM in [4]; over 100 µM in assay [5]. For the same compound, the TGI in [6] is 44 µM; in assay [9] it was over 100 µM; in assay [7], 28.7 µM.
On to `COc1ccc(NC(=O)C(=O)NNC(=O)c2sc(NNC(C)=O)nc2C)c([N+](=O)[O-])c1`, for which the TGI is over 100 µM in assay [1]; over 100 µM in [8]; over 100 µM in [2]; 85.1 µM in [3]; over 100 µM in assay [4]; over 100 µM in assay [5]. The TGI in [9] and in assay [7] was over 100 µM in each case.
For the compound `Cc1cc(N(CCC#N)CCC#N)ccc1/C=C(\NC(=O)/C=C/c1ccccc1)NC(=O)Nc1ccc(Cl)cc1`, the TGI in [1], in assay [8], in [2], in [3], in assay [4] and in assay [5] was over 100 µM each time. For the same compound, the TGI in assay [6] turned out to be 52.6 µM; in [7], 39.4 µM.
Take `CCOP(=O)(CC(=O)C1=C(O)C(CCCNC(=O)OC(C)(C)C)N(Cc2ccc(OC)c(OC)c2)C1=O)OCC` (stereo unspecified): the TGI in [1], in assay [8], in assay [2], in [3], in assay [4] and in [5] was over 100 µM each time. In addition, the TGI in [6] and in assay [7] was over 100 µM throughout.
For `Cc1cc(Cc2cc(C)c(NC(=O)C(=O)C3C(=O)NC(=S)NC3=O)c(C(C)C)c2)cc(C(C)C)c1NC(=O)C(=O)C1C(=O)NC(=S)NC1=O`, the TGI in assay [1], in assay [8], in assay [2], in assay [3], in [4] and in [5] was over 100 µM in each case. Besides, the TGI in assay [6], in assay [9] and in [7] was over 100 µM each time.
For the compound `CC1C=C(OC(=O)c2ccccc2)C(=O)C(n2cc(F)c(=O)n(C(=O)c3ccccc3)c2=O)O1` (stereo unspecified), the TGI in assay [1] is over 100 µM; in assay [2], over 100 µM; in assay [3] it was 71.4 µM; in [4], over 100 µM; in assay [5], 56.4 µM; in [6], 81.7 µM. In addition, the TGI in assay [9] and in assay [7] was over 100 µM each time.

These data come from PubChem BioAssay (NCI).
